Values of other authors, collected in patent US6399047B1, “Benzoxazole derivatives for use in cosmetic compositions and for stabilizing synthetic polymers” (3V Sigma S.p.A., priority 2000, dated 2002).

Experiments:
[1] = background statement
[2] = background statement; remark: listed apart in the source

- solubility in solvents usually used in cosmetics [1]: very low
- maximum absorption in the UV-A zone [2]: about 325 nm
SMILES: COc1ccc(C(=O)c2ccccc2)c(O)c1 [2-Hydroxy-4-methoxybenzophenone]
